Measured values as given in article PMC13252604, “First Generation Proteolysis Targeting Chimeras (PROTACs) for the Treatment of Progeria” (Advanced Science, 2026).

Assays:
Lmna^+/+ fibroblasts = assay: Cell viability assay (MTT); format: cell-based, mouse; conditions: up to 50 µM, 24 h
Protocol: (§1) Cpd!" 2 Cpd#$ 9 Cpd!" 2 Cpd#$ 9
(§2) Supporting Figure S3. Cellular cytotoxicity of compounds 2 and 9. Viability of progeroid […]/G609G and wild type Lmna+/+ fibroblasts treated with compounds at 5-50 µM for 24 h. Viability is expressed as the percentage relative to cells treated with vehicle (0.1% DMSO) which are considered 100% viable. Error bars represent the average±SD from three independent experiments carried out in duplicate.
(§3) (also on this page, place not known: !" #$**+,-./-*-01+234 !" #$**+,-./-*-01+234 Cpd2 Cpd2Cpd9 Cpd9) […]
(§4) was saturated at 100 ppm. Relative STD effects were calculated by comparing the intensity of the signals in the STD-NMR spectrum with signal intensities of the reference spectrum (off-resonance). The STD signal with the highest intensity was set to 100%, a nd other STD signals were calculated accordingly. […]
(§5) Cell viability was assessed as previously described.[64] […] Once supernatants were removed, formazan crystals previously formed by viable cells were dissolved in DMSO (100 μL/ well) and absorbance was measured at 570 nm (OD570-630) using an Asys UVM 340 (Biochrom Ltd., Cambridge, UK) microplate reader. Background absorbance from blank wells containing only media with compound or vehicle were subtracted from each test well. […]

[1] = tested on: Lmna^G609G/G609G fibroblasts; assay: Cell viability assay (MTT); format: cell-based, mouse; conditions: up to 50 µM, 24 h
Protocol: as §1, §2, §3, §4, §5

CC1(C)Oc2cc3oc(=O)ccc3cc2C[C@@H]1OC(=O)CCCCCNc1cccc2c1C(=O)N(C1CCC(=O)NC1=O)C2=O (some centres unmarked) [compound 2]
cytotoxicity (cell viability) (Lmna^+/+ fibroblasts): did not induce significant cytotoxicity
cytotoxicity (cell viability) [1]: did not induce significant cytotoxicity
